From PubChem BioAssay (NCI)
Several values for one entry are separate records, joined by “and”; a condition that tells them apart may be missing. Equal entries are not always repeated.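 48-hour exposure; five concentrations; linearly interpolated endpoints. GI50 is the concentration that inhibits growth by half. The concentration for full growth arrest is given as TGI.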

Tests used:
Experiment in all cases: inhibition of tumour cell growth, NCI panel, 48 h
A549 NSCLC = test system: A549 NSCLC
EKVX NSCLC = test system: EKVX NSCLC
HOP-62 NSCLC = test system: HOP-62 NSCLC
KM12 colon = test system: KM12 colon
OVCAR-5 ovarian = test system: OVCAR-5 ovarian
SF-295 CNS = test system: SF-295 CNS
SN12C renal = test system: SN12C renal
TK-10 renal = test system: TK-10 renal
HOP-92 NSCLC = test system: HOP-92 NSCLC
SR leukemia = test system: SR leukemia

Row | Compound | TGI (A549 NSCLC) [µM] | TGI (EKVX NSCLC) [µM] | TGI (HOP-62 NSCLC) [µM] | TGI (KM12 colon) | TGI (OVCAR-5 ovarian) | TGI (SF-295 CNS) | TGI (SN12C renal) | TGI (TK-10 renal) [µM] | TGI (HOP-92 NSCLC) | TGI (SR leukemia) [µM] | GI50 (SF-295 CNS) [µM]
1 | N=c1sc(N2CCOCC2)nn1CC(=O)c1ccccc1 | > 100 | > 100 | > 100 | > 100 µM | > 100 µM | > 100 µM | > 100 µM | > 100 |  |  | 
2 | CC(=O)Oc1c(OC(C)C)cc(=O)n2ccsc12 | > 100 | > 100 | > 100 | > 100 µM | > 100 µM | > 100 µM | > 100 µM | > 100 | > 100 µM |  | 
3 | O=C(Cn1c(-c2ccccc2)cc2ccccc21)N1CCOCC1 | > 100 | > 100 | > 100 | > 100 µM | > 100 µM | > 100 µM | > 100 µM | > 100 | > 100 µM |  | 
4 | CCCCCCCCCCCC1=C(O)C(=O)C=C(O)C1=O | 13.4 | 15.6 | 12.3 | 31.6 µM | 24.3 µM | 17.4 µM | 12.9 µM |  | 11.7 µM |  | 
5 | O=[N+]([O-])c1cccc2c1[nH]c1c(-c3ccccc3)nccc12 | > 42.5 | > 29.5 | 5.04 | 12.3 µM | > 100 µM | 12.1 µM | > 73.1 µM |  | 3.05 µM |  | 
6 | Nc1nc(Nc2cc(F)c(Cl)c(F)c2)cc(=O)[nH]1 | > 100 | > 100 | > 100 | > 100 µM | > 100 µM | > 100 µM | > 100 µM | > 100 | > 100 µM |  | 
7 | CSC(=NCCCN=C(NS(=O)(=O)c1ccc(Cl)cc1)SC)NS(=O)(=O)c1ccc(Cl)cc1 |  | 53.1 | > 100 |  | > 100 µM | > 100 µM | > 100 µM | > 100 | 67.9 µM | > 100 | 
8 | COC1=C(C)C(=O)C2=C(C1=O)C1C3CC4=C(C(=O)C(OC)=C(C)C4=O)C(CNC(=O)C(C)=O)N3C(C#N)C(C2)N1C (configuration not stated) |  |  |  | 0.0313 µM and 0.0726 µM | 0.0768 µM and 0.0776 µM | 0.253 µM and 0.383 µM | 0.348 µM and 0.144 µM | 3.76 | 0.00425 µM and 0.0162 µM |  | 0.000966
9 | Nc1nc(N)c2ncn(Cc3ccccc3)c2n1 | > 100 | > 100 | > 100 | > 100 µM | > 100 µM | > 100 µM | > 100 µM | > 100 | > 100 µM |  | 
10 | CO[C@@H](c1ccccc1)[C@H](O)[C@@](O)(c1ccccc1)P(=O)(OC)OC | > 100 | > 100 |  | > 100 µM | > 100 µM | > 100 µM | > 100 µM | > 100 | > 100 µM | > 100 | 
11 | COC(=O)C1CCC(=S)N1C(C)=O (configuration not stated) | > 100 | > 100 | > 100 | > 100 µM | > 100 µM | > 100 µM |  | > 100 | > 100 µM |  | 
12 | O=C(Nc1nc2ccc([N+](=O)[O-])cc2s1)c1cc([N+](=O)[O-])ccc1Cl |  | 8.55 | 10.3 | 50.5 µM | 17 µM | 14.8 µM | 4.57 µM | 32 | 2.97 µM |  | 
13 | CCOC(=O)N/N=C(/N)Cc1ccc(Cl)cc1 | > 100 | > 100 | > 100 | > 100 µM | > 100 µM | > 100 µM | > 100 µM | > 100 | > 100 µM |  | 
14 | CC1=C(C(=O)OC(C)(C)C)C(c2ccc([N+](=O)[O-])cc2)C(C(=O)OC(C)(C)C)=C(C)N1 | 52.3 | 38.4 | 40.8 | 38.5 µM | 34.9 µM | 46.2 µM | 35.4 µM | 38.1 | 29.7 µM |  | 
15 | Cc1nnc(N)s/c1=N/O | > 100 | > 100 | > 100 | > 100 µM | > 100 µM | > 100 µM | > 100 µM | > 100 | > 100 µM |  | 
16 | CNc1nc(OC)c2c(n1)[n+](C)cn2C | > 100 | > 100 | > 100 | > 100 µM | > 100 µM | > 100 µM | > 100 µM | > 100 | > 100 µM |  | 
17 | Nc1cc(O)c2cc(N=Nc3ccc(N=Nc4ccc(N=Nc5ccc6cc(S(=O)(=O)O)cc(S(=O)(=O)O)c6c5)c5ccccc45)c4cc(S(=O)(=O)O)ccc34)c(S(=O)(=O)O)cc2c1 | > 100 | > 100 | > 100 | > 100 µM | > 100 µM | > 100 µM | > 100 µM |  | > 93.3 µM |  | 
18 | COc1c(-c2nc3nc(N4CCN(C)CC4)ccc3[nH]2)cc(OC)c2c1nc(CCl)n2C | 79.6 | 39.2 | 49.1 | 30.8 µM | 56.1 µM | > 100 µM | > 100 µM |  | 41.9 µM |  | 

Row | Compound | TGI (A549 NSCLC) [µM] | TGI (EKVX NSCLC) [µM] | TGI (HOP-62 NSCLC) [µM] | TGI (KM12 colon) | TGI (OVCAR-5 ovarian) | TGI (SF-295 CNS) | TGI (SN12C renal) | TGI (TK-10 renal) [µM] | TGI (HOP-92 NSCLC) | TGI (SR leukemia) [µM] | GI50 (SF-295 CNS) [µM]
19 | CC(=O)Oc1cc(OC(C)=O)c2c(c1C)CC[C@@H]1[C@@H]2CC[C@]2(C)[C@@H](OC(C)=O)CC[C@@H]12 | 34.7 | 28 | 36 | 31.5 µM |  | 38 µM | 33.7 µM | 35 | 35.2 µM | 73.6 | 
20 | CCCCCCCCCCCCCCCC(=O)OCC(COP(=O)(O)OCCNC(=O)CCSSc1ccccn1)OC(=O)CCCCCCCCCCCCCCC (configuration not stated) | > 100 | > 100 | > 100 | > 100 µM | > 100 µM | > 100 µM | > 100 µM |  | > 100 µM | > 100 | 
21 | COc1cc(O)c2c(=O)c(O)c(-c3ccc(O)c(O)c3)oc2c1 | 50.3 | > 100 | 63.2 |  | 47.8 µM | 72.3 µM |  | 63.1 | 45.1 µM | > 100 | 
22 | O=C(c1ccccc1)n1c2ccc(Br)cc2c2nc3ccccc3nc21 |  | > 100 | > 100 | > 100 µM | > 100 µM | > 100 µM | > 100 µM | > 100 | > 100 µM | > 100 | 
23 | CCOC(=O)c1sc2nc(SC)nc3c2c1NCN3c1ccccc1Cl | > 100 |  | > 100 | > 100 µM | > 100 µM | > 100 µM | > 100 µM | > 100 | 57.6 µM |  | 
24 | CC(C)=C[C@@H]1C[C@H](C)[C@H]2CC[C@H](C)[C@H]3C(=O)C(O)=C(C)C(=O)[C@]123 | > 100 | > 100 | > 100 | > 100 µM | > 100 µM | > 100 µM | > 100 µM | > 100 | > 100 µM |  | 
25 | O=CC12CCCN1CCC2 | > 100 | > 100 | > 100 |  | > 100 µM | > 100 µM | > 100 µM | > 100 |  | > 100 | 
26 | CCCCCNC(=O)OC1CCn2c1nc1c2C(=O)C(C)=C(N2CC2)C1=O (configuration not stated) | 2.57 |  |  | 3.48 µM | 7.77 µM | 2.69 µM | 3.27 µM | 12.5 | 72 µM | > 100 | 
27 | Nc1nc2c(ccc3ccccc32)[nH]1 | > 10 | > 10 | > 10 | > 10 µM | > 10 µM | > 10 µM | > 10 µM | > 10 |  | > 10 | 
28 | CN(C)c1ccc(/C=C2\CCCCCC2=O)cc1 | > 100 | > 100 | > 100 | > 100 µM | > 100 µM | > 100 µM | > 100 µM | > 100 |  | > 100 | 
29 | COc1ccc(NC(=S)Nc2cccc(C)n2)cc1 |  | > 100 | 64.3 | > 100 µM |  | > 100 µM |  | > 100 | > 100 µM | > 100 | 
30 | CCOC(=O)C1(NC(=O)OC(C)(C)C)CCc2[nH]oc(=O)c2C1 (configuration not stated) | > 100 | > 100 | > 100 | > 100 µM | > 100 µM | > 100 µM | > 100 µM | > 100 | > 100 µM |  | 
31 | CCCCSC1=N/C(=C\c2ccccc2O)C(Cl)=N1 | > 100 | > 100 | > 100 | > 100 µM | > 100 µM | > 100 µM | > 100 µM | > 100 | > 100 µM |  | 
32 | O=P1(C(O)c2ccccc2)N(Cc2ccccc2)[C@@H]2CCCC[C@H]2N1Cc1ccccc1 (some centres not stated) | > 100 | > 100 | > 100 | > 100 µM | 76.8 µM | 56.6 µM | 43 µM | > 100 |  | 49.9 | 
33 | Nn1c(=S)[nH]nc(/C=C/c2c(O)ccc3ccccc23)c1=O | 71.2 | 20.9 | 62.8 | 59.5 µM | 42.5 µM | 96.1 µM |  |  |  | 87.1 | 
34 | COc1ccc2c(C=O)c3n(c(=O)c2c1OC)CCc1cc2c(cc1-3)OCO2 | > 100 | > 100 | > 100 | > 100 µM | > 100 µM | > 100 µM | > 100 µM | > 100 | 88.5 µM |  | 
35 | FC(F)(Sc1nc2ccccc2[nH]1)c1nc2ccccc2o1 | > 100 |  | > 100 | > 100 µM | > 100 µM | > 100 µM | > 100 µM | > 100 | > 100 µM | > 100 | 
